In PubChem BioAssay AID1259407 (Chemical Carcinogenesis Research Information System (CCRIS), 2018) one finds mutagenic call data, which are given here for one molecule.

This series has as its system CCRIS mutagenicity, Ames/micronucleus/aberration tests. Briefly: CCRIS mutagenicity studies. Conditions: Test System: AMES SALMONELLA TYPHIMURIUM, Method: MICROSUSPENSION

Activity calls are given as the source filed them. The rule behind the calls is not given here.

For `ClC(COCC(Cl)C(Cl)(Cl)Cl)C(Cl)(Cl)Cl` (centres undefined), the mutagenic call is “inactive; negative” (Strain/Indicator: TA98, Metabolic Activation: NONE); “inactive; negative” (Strain/Indicator: TA98, Metabolic Activation: S-9); “active; positive” (Strain/Indicator: TA100, Metabolic Activation: NONE); “inactive; negative” (Strain/Indicator: TA100, Metabolic Activation: S-9).
